“Also recorded” adds a separate entry of the source.
Legend:
Abca4^−/−Rdh8^−/− mice [1] = assay: Light-induced acute retinal degeneration in Abca4−/−Rdh8−/− mice (OCT, 11-cis-retinal, ERG); assay type: in vivo; details: 2 mg; dark 24 h, then 10,000 lux 1 h
WT mice = assay: Visual chromophore recovery assay (inhibition of the visual cycle in vivo); details: for inhibition of the recovery of visual chromophore: 24 h after gavage; for recovery of 11-cis-retinal in the eye, of the pre-bleached level: at 6 h after bleaching
RPE65 = target: T1, RPE65 (Bos taurus, UniProt Q28175); assay: Retinoid isomerase activity assay (11-cis-retinol production in RPE microsomes); assay type: biochemical, Bovine; details: for IC50: primary amine, decline in 11-cis-retinol production in RPE microsomes, read-out: Inhibition of RPE65
T1 construct: from tissue; host or cells: bovine retinal pigment epithelium (RPE) microsomes
T1 sequence (Q28175 whole entry): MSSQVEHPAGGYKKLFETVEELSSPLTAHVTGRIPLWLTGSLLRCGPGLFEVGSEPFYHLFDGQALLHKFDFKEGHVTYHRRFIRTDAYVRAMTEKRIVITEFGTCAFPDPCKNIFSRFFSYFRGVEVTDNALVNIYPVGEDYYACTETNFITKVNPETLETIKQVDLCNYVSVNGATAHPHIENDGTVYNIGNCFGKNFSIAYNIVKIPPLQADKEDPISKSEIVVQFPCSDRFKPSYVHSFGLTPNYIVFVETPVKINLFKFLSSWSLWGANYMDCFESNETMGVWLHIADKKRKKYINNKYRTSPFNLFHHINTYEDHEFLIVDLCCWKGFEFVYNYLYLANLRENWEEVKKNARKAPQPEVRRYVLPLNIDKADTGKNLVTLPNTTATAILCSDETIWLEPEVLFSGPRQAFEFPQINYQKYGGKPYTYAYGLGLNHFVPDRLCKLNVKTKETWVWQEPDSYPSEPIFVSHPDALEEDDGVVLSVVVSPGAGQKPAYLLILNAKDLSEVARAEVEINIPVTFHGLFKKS
Experimental: Bovine RPE microsomes were isolated from RPE homogenates by differential centrifugation as previously described. The resulting microsomal precipitate was resuspended in 10 mM Bis-Tris propane/HCl buffer, pH 7.4, to achieve a total protein concentration of […]. Then the mixture was placed in a quartz cuvette and irradiated for 6 min at 4° C. with a ChromatoUVE transilluminator (model TM-15; UVP) to eliminate residual retinoids. After irradiation, DTT was added to the RPE microsomal mixture to achieve a final concentration of 5 mM.
[…] The resulting mixture was pre incubated at room temperature for 5 min. Then 1 μl of all-trans-retinol (in DMF, final concentration 20 μM) was added. The resulting mixture was incubated at 37° C. for 15 min to 2 h. The reaction was quenched by adding 300 μl of methanol, and products were extracted with 300 μl of hexanes. Production of 11-cis-retinol was quantified by normal phase HPLC with 10% (v/v) ethyl acetate in hexanes as the eluent at a flow rate of 1.4 ml·min^−1. Retinoids were detected by monitoring their absorbance at 325 nm and quantified based on a standard curve representing the relationship between the amount of 11-cis-retinol and the area under the corresponding chromatographic peak.
Primary amines of compounds derived from the aldehydes were subsequently tested for their ability to inhibit the RPE65-dependent retinoid isomerization reaction in dose- and time dependent reactions as exemplified by QEB-B-001 (FIG. 3B). Amines were incubated with RPE microsomes in the presence of all-trans-retinol and the 11-cis-retinoid binding protein, CRALBP.
Progress of the enzymatic reaction was monitored by HPLC separation of retinoids and quantification of 11-cis-retinol with a decrease of 11-cis-retinol production reflecting inhibition of RPE65 by a tested amine. […] This moderate inhibition could be enhanced by shortening the polyene chain length (TEA amines) or diminished by introducing an extra positive charge into the tested compounds (QEA-G amines).

Abca4^−/−Rdh8^−/− mice [2] = assay: Light-induced acute retinal degeneration in Abca4−/−Rdh8−/− mice (OCT, 11-cis-retinal, ERG); assay type: in vivo; details: for OCT imaging of the retina: 3 d after bleaching; for average ONL thickness: OCT 3 d after bleaching
Experimental: Abca4^−/−Rdh8^−/− double knockout mice were generated as previously described. Mice were housed in the animal facility at the School of Medicine, Case Western Reserve University, where they were maintained under either complete darkness or in a 12-h light (˜300 lux) and 12-h dark cycle. All tested primary amines were suspended in 100 μl of soybean oil with less than 10% (v/v) DMSO and were administered by oral gavage with a 22-gauge feeding needle. Experimental manipulations in the dark were done under dim red light transmitted through a Kodak No. 1 safelight filter (transmittance >560 nm). All animal procedures and experiments were approved by the Case Western Reserve University Animal Care Committees and conformed to recommendations of the American Veterinary Medical Association Panel on Euthanasia and the Association of Research for Vision and Ophthalmology.
After dark adaptation for 24 h, 4-week-old male or female Abca4^−/−Rdh8^−/− mice with pupils dilated by 1% tropicamide were exposed to fluorescent light (10,000 lx; 150 W spiral lamp, Commercial Electric) for 1 h in a white paper bucket (Papersmith), and then kept in the dark for an additional 3 d. Development of retinal degeneration was then examined by ultra-high resolution spectral-domain OCT (SDOCT; Bioptigen) and ERGs as previously described.
Then animals were euthanized and their eyes were collected and homogenized in 10 mM sodium phosphate buffer, pH 7.4, containing 50% methanol (v/v) and 40 mM hydroxylamine. The resulting mixture was extracted with 4 ml of hexanes. Extracts were dried in vacuo, reconstituted in 300 μl of hexanes and 100 μl of the extract was injected into an HPLC for analysis with 10% (v/v) ethyl acetate in hexanes.
For practical reasons, only eight of these leading compounds (QEA-B-001-NH2, B-002-NH2, C-001-NH2, C-003-NH2, C006-NH2, E-002-NH2, TEA-B-002-NH2, and C00-2-NH2) along with retinylamine as a control were selected for further testing in Abca4^−/−Rdh8^−/− mice, an animal model for light-induced retinal degeneration (Table 2). Additionally, two novel amines with moderate inhibition of RPE65 (QEA-A-006-NH2 and QEA-B-003-NI 12) and one with strong inhibition (QEA-A-005-NH2) were added to the first test group for comparison. Mice were gavaged with 1 mg of a test compound and then kept in the dark for 24 h prior to being exposed to bright light (˜10,000 lux) for 1 h. Retinal damage was assessed with OCT that measured the thickness of the outer nuclear layer and by quantification of tissue 11-cis retinal levels. An example is shown for imaging results in FIG. 4A and for 11-cis-retinal quantification in FIG. 4B. Additionally, extracts of livers obtained from treated mice were analyzed by HPLC to estimate the amounts of corresponding amides (FIG. 4C).
Once the time course of retinylamine's inhibitory effect was established, we investigated the correlation between the level of inhibition and the protective effect on the retina. Four week old Abca4^−/−Rdh8^−/− mice were gavaged with 0.1, 0.2, and 0.5 mg of retinylamine, respectively, and kept in the dark for 24 h. Mice then were bleached with 10,000 lux bright light for 1 h. Measured as described above, the recovery of visual chromophore was inhibited by about 40%, 80%, and 95%, respectively by these tested drug doses (FIGS. 5B and 5C). Bleached mice were kept in the dark for 3 d, and then imaged by OCT (FIGS. 6A and 6B). […] The average ONL thickness in the latter group of mice was 51.1±5.8 μm, well within the range of healthy retinas. […] Their average ONL thickness was 34.4±17.4 μm. […] In an equivalent experiment, mice were kept in the dark for 7 days prior to quantification of visual chromophore levels. (Amounts of 11-cis-retinal reflect the concentration of rhodopsin and thus can be used to verify the health of photoreceptor cells).

[3] = 0.1 mg, dark 7 days after bleaching
[4] = 0.2 mg, dark 7 days after bleaching

CC1=C(/C=C/C(C)=C/C=C/C(C)=C/CN)C(C)(C)CCC1 [QEA-A-001-NH2, retinylamine]
protection of ONL (averaged ONL thickness by OCT) (Abca4^−/−Rdh8^−/− mice [1]): protected
inhibition of the recovery of visual chromophore (WT mice; 0.1 mg): about 40%
inhibition of the recovery of visual chromophore (WT mice; 0.2 mg): ~80%
recovered 11-cis-retinal (WT mice; 0.2 mg, day 3 after administration): 61±2.2%
inhibitory effect on 11-cis-retinal regeneration (WT mice; 0.2 mg, day 7): nearly disappeared
recovery of 11-cis-retinal in the eye, of the pre-bleached level (WT mice; 0.2 mg, light 2 h after administration): 50±13%
recovery of 11-cis-retinal in the eye, of the pre-bleached level (WT mice; 0.2 mg, light 24 h after administration): 22±5.0%
inhibition of the recovery of visual chromophore (WT mice; 0.5 mg): ~95%
recovery of 11-cis-retinal (WT mice; 0.5 mg, 7 days after administration): 56±9.1%
time point with the strongest inhibition of the retinoid cycle (WT mice; 0.1 to 0.5 mg, gavage 2 h to 7 days before light): 24 h
duration of inhibition of the retinoid cycle (WT mice; gavage 2 h to 7 days before light, 11-cis-retinal 6 h after bleaching): more than 7 days
IC50 (RPE65): < 10 µM
protection against retinal degeneration (Abca4^−/−Rdh8^−/− mice [2]; 0.1 mg dose, bright light exposure): failed to protect
OCT imaging of the retina (Abca4^−/−Rdh8^−/− mice [2]; 0.1 mg): severe retinal degeneration
11-cis-retinal levels (Abca4^−/−Rdh8^−/− mice [2]; [3]): 323±48 pmol/eye
ERG responses (Abca4^−/−Rdh8^−/− mice [2]; [3]): attenuated ERG responses
OCT imaging of the retina (Abca4^−/−Rdh8^−/− mice [2]; 0.2 mg): partially protected
average ONL thickness (Abca4^−/−Rdh8^−/− mice [2]; 0.2 mg): 34.4±17.4 μm
11-cis-retinal levels (Abca4^−/−Rdh8^−/− mice [2]; [4]): 445±37 pmol/eye
ERG scotopic a wave responses (Abca4^−/−Rdh8^−/− mice [2]; [4]): same ERG scotopic a wave responses as unbleached control mice
OCT imaging of the retina (Abca4^−/−Rdh8^−/− mice [2]; 0.5 mg): clear intact ONL image
average ONL thickness (Abca4^−/−Rdh8^−/− mice [2]; 0.5 mg): 51.1±5.8 μm
ERG scotopic a wave responses (Abca4^−/−Rdh8^−/− mice [2]; 0.5 mg, dark 7 days after bleaching): same ERG scotopic a wave responses as unbleached control mice

CC(/C=C/C=C(/C=C/C1=CCCCC1)C(C)(C)C)=C\CN [QEA-B-001-NH2]
inhibition of RPE65 (RPE65): modest or non-inhibitor; also recorded: did not inhibit
IC50 (RPE65): > 200 µM
prevention of light-induced retinal degeneration (Abca4^−/−Rdh8^−/− mice [2]; gavaged with 1 mg, dark 24 h, ~10,000 lux 1 h, OCT): inability to prevent
